Measured values taken from patent publication US11111233B2, “Amino pyrimidine compound for inhibiting protein tyrosine kinase activity” (Shenzhen TargetRx, Inc., priority 2016, dated 2021).
pIC50: −log10 of the molar value. Read-outs that look alike come from different tables or passages of the source.

What was measured:
[1] = tested on: Skin cancer cell line A431 (WT); experiment: Cytotoxicity test (MTS cell viability), A431; assay type: cell-based; details: for IC50: A-431, 72 h, read-out: A431 (WT) IC50(nM); for pIC50: MTS, 72 hours, read-out: A431 (WT) IC50
[2] = tested on: lung cancer cells HCC827 (Del19); experiment: Cytotoxicity test (MTS cell viability), HCC827; assay type: cell-based; details: for IC50: HCC827, 72 h, read-out: HCC827 (Del19) IC50(nM); for pIC50: MTS, 72 hours, read-out: HCC827 (Del19) IC50
WT EGFR = WT EGFR (Homo sapiens (Human), UniProt P00533); experiment: Kinase inhibition assay (HTRF), WT EGFR; assay type: biochemical
EGFR [L858R/T790M] = EGFR [L858R/T790M] (Homo sapiens (Human), UniProt P00533, L858R/T790M); experiment: Kinase inhibition assay (HTRF), EGFR [L858R/T790M]; assay type: biochemical
[3] = HTRF Kinase TK kit, 10 min pre-incubation, 20 min reaction
[4] = HTRF Kinase TK kit, 10 min pre-incubation, 20 min reaction, read-out: EGFR(L858R/T790M) IC50

Chain of EGFR [L858R/T790M] (P00533 25-1210 T790M/L858R): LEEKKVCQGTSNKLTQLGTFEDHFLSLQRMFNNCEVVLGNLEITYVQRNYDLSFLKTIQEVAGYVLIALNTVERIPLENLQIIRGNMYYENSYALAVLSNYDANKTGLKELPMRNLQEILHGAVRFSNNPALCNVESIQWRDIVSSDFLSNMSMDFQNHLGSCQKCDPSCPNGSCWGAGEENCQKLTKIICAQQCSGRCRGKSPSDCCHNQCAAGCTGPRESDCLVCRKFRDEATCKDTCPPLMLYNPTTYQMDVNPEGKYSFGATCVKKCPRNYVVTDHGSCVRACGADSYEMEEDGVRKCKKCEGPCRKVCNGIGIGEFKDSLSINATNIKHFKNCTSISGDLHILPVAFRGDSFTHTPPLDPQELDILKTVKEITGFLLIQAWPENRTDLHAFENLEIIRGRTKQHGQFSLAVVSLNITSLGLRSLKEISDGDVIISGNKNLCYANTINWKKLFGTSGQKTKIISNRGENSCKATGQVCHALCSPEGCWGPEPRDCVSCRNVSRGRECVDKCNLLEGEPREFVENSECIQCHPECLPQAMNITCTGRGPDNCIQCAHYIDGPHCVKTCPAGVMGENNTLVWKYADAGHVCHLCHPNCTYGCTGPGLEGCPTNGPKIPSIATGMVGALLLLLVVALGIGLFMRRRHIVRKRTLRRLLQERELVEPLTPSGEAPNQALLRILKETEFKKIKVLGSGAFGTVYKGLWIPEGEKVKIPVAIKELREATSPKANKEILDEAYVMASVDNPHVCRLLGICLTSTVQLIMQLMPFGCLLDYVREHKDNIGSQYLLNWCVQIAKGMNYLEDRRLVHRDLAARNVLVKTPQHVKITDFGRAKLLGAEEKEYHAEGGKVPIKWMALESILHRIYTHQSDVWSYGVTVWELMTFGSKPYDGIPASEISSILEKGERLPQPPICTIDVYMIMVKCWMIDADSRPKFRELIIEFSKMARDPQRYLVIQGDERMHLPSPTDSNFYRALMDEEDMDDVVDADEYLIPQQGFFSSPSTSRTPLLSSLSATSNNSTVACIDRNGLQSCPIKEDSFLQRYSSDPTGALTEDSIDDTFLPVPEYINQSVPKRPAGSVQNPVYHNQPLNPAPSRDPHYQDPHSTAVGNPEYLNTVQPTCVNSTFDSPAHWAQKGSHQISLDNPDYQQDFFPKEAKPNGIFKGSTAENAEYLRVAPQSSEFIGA
Chain of WT EGFR (P00533 25-1210): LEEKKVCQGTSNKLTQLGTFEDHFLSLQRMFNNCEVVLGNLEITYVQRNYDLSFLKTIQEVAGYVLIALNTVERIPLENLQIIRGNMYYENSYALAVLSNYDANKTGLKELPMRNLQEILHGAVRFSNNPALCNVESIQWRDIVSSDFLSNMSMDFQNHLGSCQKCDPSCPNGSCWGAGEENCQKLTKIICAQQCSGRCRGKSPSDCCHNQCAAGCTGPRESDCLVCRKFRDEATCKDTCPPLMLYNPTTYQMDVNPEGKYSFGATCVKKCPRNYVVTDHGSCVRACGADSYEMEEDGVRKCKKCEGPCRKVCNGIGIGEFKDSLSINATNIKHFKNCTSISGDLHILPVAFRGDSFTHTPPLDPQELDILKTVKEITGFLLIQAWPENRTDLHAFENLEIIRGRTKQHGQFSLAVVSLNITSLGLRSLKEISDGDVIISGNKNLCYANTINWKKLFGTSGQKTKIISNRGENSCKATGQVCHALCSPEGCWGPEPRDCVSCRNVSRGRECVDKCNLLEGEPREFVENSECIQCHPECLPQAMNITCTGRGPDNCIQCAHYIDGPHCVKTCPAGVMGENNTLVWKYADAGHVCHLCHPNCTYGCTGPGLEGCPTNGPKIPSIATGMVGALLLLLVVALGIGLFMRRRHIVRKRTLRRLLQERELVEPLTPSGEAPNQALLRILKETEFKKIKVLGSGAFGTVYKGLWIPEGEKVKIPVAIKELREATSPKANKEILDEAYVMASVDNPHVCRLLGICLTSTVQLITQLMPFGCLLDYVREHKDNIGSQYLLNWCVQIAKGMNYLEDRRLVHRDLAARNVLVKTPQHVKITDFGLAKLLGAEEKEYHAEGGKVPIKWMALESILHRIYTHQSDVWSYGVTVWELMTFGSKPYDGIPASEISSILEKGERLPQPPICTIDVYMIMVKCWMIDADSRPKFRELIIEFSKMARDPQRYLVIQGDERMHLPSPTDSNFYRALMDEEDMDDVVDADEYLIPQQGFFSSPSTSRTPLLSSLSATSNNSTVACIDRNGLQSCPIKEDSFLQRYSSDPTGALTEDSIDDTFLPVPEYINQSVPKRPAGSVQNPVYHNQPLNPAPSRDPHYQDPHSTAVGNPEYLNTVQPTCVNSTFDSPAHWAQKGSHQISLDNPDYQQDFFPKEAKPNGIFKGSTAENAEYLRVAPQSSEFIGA

Row | Compound | IC50 ([2]; Homo sapiens) | pIC50 ([1]; Homo sapiens, A-431) | pIC50 (WT EGFR; [3]) | pIC50 (EGFR [L858R/T790M]; [4]) | further results
1 | C=CC(=O)Nc1cc(Nc2nccc(-c3cn(C)c4ccccc34)n2)c(OC)cc1N(C)CCN(C)C [AZD9291, reference compound] | 10 to 100 nM |  |  |  | IC50 ([1]; Homo sapiens): 100 to 400 nM
2 | C=CC(=O)Nc1cc(Nc2ncc(Cl)c(-c3cc(F)c4nc(C)n(C(C)C)c4c3)n2)c(OC)cc1N(C)CCN(C)C [Example 1, N-(2-((2-(dimethylamino)ethyl)(methyl)amino)-5-((5-chloro-4-(4-fluoro-1-isopropyl-2-methyl-1H-benzo[d]imidazole-6-yl)pyrimidin-2-yl)amino)-4-methoxyphenyl)acrylamide] |  | < 6.00 | 7.30 to 9.00 |  | pIC50 ([2]; Homo sapiens, HCC827): 7.00 to 8.00
3 | C=CC(=O)Nc1cc(Nc2ncc(C)c(-c3cc(F)c4nc(C)n(C(C)C)c4c3)n2)c(OC)cc1N(C)CCN(C)C [Example 2, N-(2-((2-(dimethylamino)ethyl)(methyl)amino)-5-((5-methyl-4-(4-fluoro-1-isopropyl-2-methyl-1H-benzo[d]imidazole-6-yl)pyrimidin-2-yl)amino)-4-methoxyphenyl)acrylamide] |  | < 6.00 | 7.30 to 9.00 | > 9.00 | pIC50 ([2]; Homo sapiens, HCC827): 7.00 to 8.00
4 | C=CC(=O)Nc1cc(Nc2ncc(OC)c(-c3cc(F)c4nc(C)n(C(C)C)c4c3)n2)c(OC)cc1N(C)CCN(C)C [Example 3, N-(2-((2-(dimethylamino)ethyl)(methyl)amino)-5-((5-methoxy-4-(4-fluoro-1-isopropyl-2-methyl-1H-benzo[d]imidazole-6-yl)pyrimidin-2-yl)amino)-4-methoxyphenyl)acrylamide] |  |  | 7.30 to 9.00 | 7.30 to 9.00 | 
5 | C=CC(=O)Nc1cc(Nc2ncc(C(F)(F)F)c(-c3cc(F)c4nc(C)n(C(C)C)c4c3)n2)c(OC)cc1N(C)CCN(C)C [Example 4, N-(2-((2-(dimethylamino)ethyl)(methyl)amino)-5-((5-trifluoromethyl-4-(4-fluoro-1-isopropyl-2-methyl-1H-benzo[d]imidazole-6-yl)pyrimidin-2-yl)amino)-4-methoxyphenyl)acrylamide] |  |  | 7.30 to 9.00 | > 9.00 | 
6 | C=CC(=O)Nc1cc(Nc2nccc(-c3cc(F)c4nc5n(c4c3)C(C)(C)CC5)n2)c(OC)cc1N(C)CCN(C)C [Example 5, N-(2-((2-(dimethylamino)ethyl)(methyl)amino)-5-((4-(5-fluoro-1,1-dimethyl-2,3-dihydro-1H-benzo[d]imidazole[1,2-a]pyrrol-6-yl)pyrimidin-2-yl)amino)-4-methoxyphenyl)acryl amide] |  |  | 7.30 to 9.00 | > 9.00 | 
7 | C=CC(=O)Nc1cc(Nc2nccc(-c3cc(F)c4nc(OC)n(C(C)C)c4c3)n2)c(OC)cc1N(C)CCN(C)C [Example 6, N-(2-((2-(dimethylamino)ethyl)(methyl)amino)-5-((4-(4-fluoro-1-isopropyl-2-methoxy-1H-benzo[d]imidazole-6-yl)pyrimidin-2-yl)amino)-4-methoxyphenyl)acrylamide] |  | < 6.00 | 7.30 to 9.00 | > 9.00 | pIC50 ([2]; Homo sapiens, HCC827): 7.00 to 8.00
8 | C=CC(=O)Nc1cc(Nc2nccc(-c3cc(F)c4nc(OC)n(C(C)C)c4c3)n2)c(OC)cc1OCCN(C)C [Example 7] | 10 to 100 nM |  | 7.30 to 9.00 |  | IC50 ([1]; Homo sapiens): > 1000 nM
9 | C=CC(=O)Nc1cc(Nc2ncc(Br)c(-c3cc(F)c4nc(C)n(C(C)C)c4c3)n2)c(OC)cc1N(C)CCN(C)C [Example 8, N-(2-((2-(dimethylamino)ethyl)(methyl)amino)-5-((5-bromo-4-(4-fluoro-1-isopropyl-2-methyl-1H-benzo[d]imidazole-6-yl)pyrimidin-2-yl)amino)-4-methoxyphenyl)acrylamide] |  | < 6.00 | 7.30 to 9.00 | 7.30 to 9.00 | pIC50 ([2]; Homo sapiens, HCC827): 7.00 to 8.00
10 | C=CC(=O)Nc1cc(Nc2ncc(C3CC3)c(-c3cc(F)c4nc(C)n(C(C)C)c4c3)n2)c(OC)cc1N(C)CCN(C)C [Example 9, N-(2-((2-(dimethylamino)ethyl)(methyl)amino)-5-((5-cyclopropyl-4-(4-fluoro-1-isopropyl-2-methyl-1H-benzo[d]imidazole-6-yl)pyrimidin-2-yl)amino)-4-methoxyphenyl)acrylamide] |  | < 6.00 | < 7.00 | 7.30 to 9.00 | pIC50 ([2]; Homo sapiens, HCC827): 6.00 to 6.40
11 | C=CC(=O)Nc1cc(Nc2nccc(-c3cc(F)c4nc(C)n(C(C)C)c4c3)n2)c(OC)cc1OCCOC [Example 10, N-(2-(2-methoxy-ethyl-oxy)-5-((4-(4-fluoro-1-isopropyl-2-methyl-1H-benzo[d]imidazole-6-yl)pyrimidin-2-yl)amino)-4-methoxyphenyl)acrylamide] | 400 to 1000 nM | < 6.00 |  |  | pIC50 (WT EGFR): < 7.00; pIC50 (EGFR [L858R/T790M]): 7.00 to 7.30
12 | C=CC(=O)Nc1cc(Nc2nccc(-c3cc(F)c4nc(C)n(C(C)C)c4c3)n2)c(OC)cc1SCCN(C)C [Example 11, N-(2-(2-(dimethylamino)ethyl)(thio)-5-((4-(4-fluoro-1-isopropyl-2-methyl-1H-benzo[d]imidazole-6-yl)pyrimidin-2-yl)amino)-4-methoxyphenyl)acrylamide] | 10 to 100 nM |  | 7.30 to 9.00 |  | IC50 ([1]; Homo sapiens): 400 to 1000 nM
13 | C=CC(=O)Nc1cc(Nc2nccc(-c3cc(F)c4nc(C)n(C(C)C)c4c3)n2)c(OC)cc1OCCN(C)C [Example 12, N-(2-(2-(dimethylamino)ethyl)(oxy)-5-((4-(4-fluoro-1-isopropyl-2-methyl-1H-benzo[d]imidazole-6-yl)pyrimidin-2-yl)amino)-4-methoxyphenyl)acrylamide] | < 10 nM |  |  |  | IC50 ([1]; Homo sapiens): 100 to 400 nM
14 | C=CC(=O)Nc1cc(Nc2nccc(-c3cc(F)c4nc(C)n(C(C)C)c4c3)n2)c(OC)cc1N1CCC(N2CCOCC2)CC1 [Example 13] | 10 to 100 nM | < 6.00 | 7.30 to 9.00 | 7.30 to 9.00 | 
15 | C=CC(=O)Nc1cc(Nc2nccc(-c3cc(F)c4nc(C)n(C(C)C)c4c3)n2)c(OC)cc1N1CCC(OC)CC1 [Example 15] | 100 to 400 nM | < 6.00 |  | 7.30 to 9.00 | 
16 | C=CC(=O)Nc1cc(Nc2nccc(-c3cc(F)c4nc(C)n(C(C)C)c4c3)n2)c(OC)cc1N1CCOCC1 [Example 16] | 100 to 400 nM | < 6.00 |  | 7.30 to 9.00 | 
17 | C=CC(=O)Nc1cc(Nc2ncc(C#N)c(-c3cc(F)c4nc(C)n(C(C)C)c4c3)n2)c(OC)cc1N(C)CCN(C)C [Example 18, N-(2-((2-(dimethylamino)ethyl)(methyl)amino)-5-((5-cyano-4-(4-fluoro-1-isopropyl-2-methyl-1H-benzo[d]imidazole-6-yl)pyrimidin-2-yl)amino)-4-methoxyphenyl)acrylamide] |  |  | 7.30 to 9.00 | > 9.00 | 
18 | C=CC(=O)Nc1cc(Nc2ncc(F)c(-c3cc(F)c4nc(C)n(C(C)C)c4c3)n2)c(OC)cc1N(C)CCN(C)C [Example 19, N-(2-((2-(dimethylamino)ethyl)(methyl)amino)-5-((5-fluoro-4-(4-fluoro-1-isopropyl-2-methyl-1H-benzo[d]imidazole-6-yl)pyrimidin-2-yl)amino)-4-methoxyphenyl)acrylamide] |  |  | 7.30 to 9.00 | > 9.00 | 
19 | C=CC(=O)Nc1cc(Nc2nccc(-c3cc(F)c4oc(C)nc4c3)n2)c(OC)cc1N(C)CCN(C)C [Example 31, N-(2-((2-(dimethylamino)ethyl)(methyl)amino)-5-((4-(7-fluoro-2-methylbenzo[d]oxazole-5-yl)pyrimidin-2-yl)amino)-4-methoxyphenyl)acrylamide] |  | < 6.00 |  |  | 
20 | C=CC(=O)Nc1cc(Nc2nccc(-c3ccc4ncn(C(C)C)c4c3)n2)c(OC)cc1N(C)CCN(C)C [Example 36, N-(2-((2-(dimethylamino)ethyl)(methyl)amino)-5-((4-(1-isopropyl-1H-benzo[d]imidazole-6-yl)pyrimidin-2-yl)amino)-4-methoxyphenyl)acrylamide] |  |  | 7.30 to 9.00 | > 9.00 | 
21 | C=CC(=O)Nc1cc(Nc2nccc(-c3ccc4nc(C(F)(F)F)n(C(C)C)c4c3)n2)c(OC)cc1N(C)CCN(C)C [Example 37, N-(2-((2-(dimethylamino)ethyl)(methyl)amino)-5-((4-(1-isopropyl-2-(trifluoromethyl)-1H-benzo[d]imidazole-6-yl)pyrimidin-2-yl)amino)-4-methoxyphenyl)acrylamide] |  |  | 7.30 to 9.00 | 7.30 to 9.00 | 
22 | C=CC(=O)Nc1cc(Nc2nccc(-c3cc(F)c4c(cnn4C)c3)n2)c(OC)cc1N(C)CCN(C)C [Example 39, N-(2-((2-(dimethylamino)ethyl)(methyl)amino)-5-((4-(7-fluoro-1-methyl-indazole-5-yl)pyrimidin-2-yl)amino)-4-methoxyphenyl)acrylamide] |  |  |  |  | IC50 ([1]; Homo sapiens): 100 to 400 nM
23 | C=CC(=O)Nc1cc(Nc2nccc(-c3cc(F)c4nc(C)n(C(C)C)c4c3)n2)c(OC(F)F)cc1N(C)CCN(C)C [Example 47] | < 10 nM | 6.00 to 6.40 | 7.30 to 9.00 |  | 
24 | COc1cc(N2CCN(C)CC2)ccc1Nc1nccc(-c2cc(F)c3nc(C)n(C(C)C)c3c2)n1 [Example 54, 4-(4-fluoro-1-isopropyl-2-methyl-1H-benzo[d]imidazole-6-yl)-N-(2-methoxy-4-(4-methylpiperazin-1-yl)phenyl)pyrimidin-2-amine] |  | 6.00 to 6.40 |  |  | 
25 | N-(2-(4-ethoxypiperidin)-1-yl)-5-((4-(4-fluoro-1-isopropyl-2-methyl-1H-benzo[d]imidazole-6-yl)pyrimidin-2-yl)amino)-4-methoxyphenyl)acrylamide [Example 14] |  |  |  |  | pIC50 [1]: < 6.00; pIC50 [2]: 6.00 to 6.40
